{"source": "patent US20010056099A1", "about": "“Method of reducing morbidity and the risk of mortality” (priority 2000, published 2001)", "key": {"OVX rats [1]": {"test_system": "OVX rats", "experiment": "Ovariectomized rat model: bone histomorphometry of fifth lumbar vertebral body", "assay_type": "in vivo", "details": "4 weeks; for OVX-induced increase in bone formation rate (BFR) / percent eroded surface (index of osteoclastic bone resorption) compared with sham controls: lumbar vertebra", "source_text": "(§1) In women, estrogen deficiency during the menopause results in increased bone turnover leading to bone loss. Ovariectomy in rats produces estrogen deficiency and increased bone turnover leading to trabecular bone loss similar to that observed in post-menopausal women (Kalu, D. N., Bone and Mineral 1991;15:175; Frost, H. M., Jee W. S. S., Bone and Mineral 1992;18:227; Wronski, T. J., Yen, C-F, Cells Materials 1991 ;(suppl. 1):69). The OVX rat is thus an appropriate model to evaluate compounds for the prevention and treatment of post-menopausal osteoporosis. The ability of PPTN to inhibit estrogen deficiency bone loss was assessed in 5-month-old OVX rats, since ovariectomy causes significant bone loss in the lumbar vertebrae, proximal tibia, and distal femoral metaphyses (Ke, H. Z., et al., Endocrin 1995;136:2435; Chen, H. K., et al., J Bone Miner Res 1995;10:1256).\n(§2) Five-month-old OVX female rats were treated with PPTN at oral doses of 0.733, 7.33, 73.3, and 733 μg/kg/day, or 17α-ethynyl estradiol (EE) at 30 μg/kg/day (10 rats per subgroup) daily for 4 weeks. The oral treatment began 1 day after surgery. Groups of vehicle-treated sham rats (n=10) and vehicle-treated OVX rats (n=10) served as controls. Calcein at 10 mg/kg was injected s.c. to all rats 12 and 2 days before necropsy as a fluorochrome bone marker to measure bone dynamic histomorphometric parameters. The effects of PPTN on the following end points were determined: (a) serum osteocalcin, a biochemical marker of bone turnover, (b) bone mineral density of lumbar vertebrae and distal femoral metaphyses, (c) bone histomorphometry of fifth lumbar vertebral body and proximal tibial metaphyses.\nIn order to understand the cellular mechanism of bone-protective effects of PPTN at the tissue level, bone histomorphometric methods were used to determine the effects of PPTN on cancellous bone of the fifth lumbar vertebral body in OVX rats. Ovariectomy caused significant decreases in trabecular bone volume (trabecular bone area divided by marrow space area, expressed as percent) and trabecular number, and a significant increase in trabecular separation of the fifth lumbar vertebral body."}, "OVX rats [2]": {"test_system": "OVX rats", "experiment": "Ovariectomized rat model: serum osteocalcin by radioimmunoassay", "assay_type": "in vivo", "details": "daily for 4 weeks", "source_text": "as §1\nFive-month-old OVX female rats were treated with PPTN at oral doses of 0.733, 7.33, 73.3, and 733 μg/kg/day, or 17α-ethynyl estradiol (EE) at 30 μg/kg/day (10 rats per subgroup) daily for 4 weeks. […] The effects of PPTN on the following end points were determined: (a) serum osteocalcin, a biochemical marker of bone turnover, (b) bone mineral density of lumbar vertebrae and distal femoral metaphyses, (c) bone histomorphometry of fifth lumbar vertebral body and proximal tibial metaphyses. […]"}, "OVX rats [3]": {"test_system": "OVX rats", "experiment": "Ovariectomized rat model: femoral BMD by dual-energy X-ray absorptiometry", "assay_type": "in vivo", "details": "4 weeks", "source_text": "as §1, §2\nUsing dual-energy X-ray absorptiometry, the right femur of each rat was scanned ex vivo. Bone mineral density (BMD) of the distal femoral metaphyses (second 0.5 cm from the distal end of femur) and the proximal femur (the first 0.5 cm from the proximal end of femur, which contains the femoral head, neck, and greater trochanter) was determined."}, "OVX rats [4]": {"test_system": "OVX rats", "experiment": "Ovariectomized rat model: lumbar vertebral BMD by dual-energy X-ray absorptiometry", "assay_type": "in vivo", "details": "4 weeks", "source_text": "as §1, §2\nThe first to the sixth lumbar vertebrae from each rat were removed during necropsy. These were then scanned ex vivo using dual-energy X-ray absorptiometry. The scan images were analyzed, and bone area, bone mineral content (BMC), and bone mineral density (BMD) of whole lumbar vertebrae (WLV), and LV1 through LV6 were determined. […] The changes in BMC were similar to those observed in BMD. […]"}, "OVX rats [5]": {"test_system": "OVX rats", "experiment": "Ovariectomized rat model: histomorphometry of proximal tibial metaphyses", "assay_type": "in vivo", "details": "4 weeks", "source_text": "as §1, §2\nIn order to determine the effect of PPTN on long bone metaphyses, histomorphometric analyses were performed on the proximal tibiae."}, "MDA-MB-231 cells": {"test_system": "MDA-MB-231 cells", "experiment": "Inhibition of in vitro human breast tumor cell growth (ER-negative line)", "assay_type": "cell-based", "details": "MDA-MB-231 (ER-negative), 6 days incubation, direct cell counts", "protocol": "The in vitro antiproliferative effects of (-)-cis-6-phenyl-5-[4-(2-pyrrolidin-1-yl-ethoxy)-phenyl]-5,6,7,8-tetrahydro-naphthalene-2-ol (PPTN) were tested using two types of human breast cancer cell lines: first, MCF-7 cells, which contain ER as well as progesterone receptors (PgR), and second, MDA-MB-231 cells, which lack ER and PgR, and enable the determination of an effect that is independent of the ER mechanism. The effect of PPTN on the growth of these different cell lines was determined by incubation of the cells with various compound concentrations for 6 days.\nThe antiproliferative effects were then determined by direct cell counts. PPTN inhibited the growth of the ER-positive cell line MCF-7."}, "[6]": {"details": "PPTN at 73.3 or 733 μg/kg/day oral"}, "[7]": {"details": "PPTN at doses ≧7.33 μg/kg/day oral"}}, "data": [{"molecule": "C#C[C@]1(O)CC[C@H]2[C@@H]3CCc4cc(O)ccc4[C@H]3CC[C@@]21C", "note": "[EE, 17α-ethynyl estradiol, reference compound]", "values": [{"measurement": "OVX-induced changes in trabecular bone volume, trabecular number and trabecular separation of fifth lumbar vertebral body", "setting": "OVX rats [1]; EE 30 μg/kg/day oral", "value": "completely prevented"}, {"measurement": "bone turnover rate, lumbar vertebra", "setting": "OVX rats [1]; EE 30 μg/kg/day oral", "value": "did not differ from sham controls"}, {"measurement": "trabecular number of fifth lumbar vertebral body compared with sham controls", "setting": "OVX rats [1]; EE 30 μg/kg/day oral", "value": "significantly increased"}, {"measurement": "OVX-induced increase in bone formation rate (BFR)", "setting": "OVX rats [1]; EE 30 μg/kg/day oral", "value": "inhibited this increase"}, {"measurement": "percent eroded surface (index of osteoclastic bone resorption) compared with sham controls", "setting": "OVX rats [1]; EE 30 μg/kg/day oral", "value": "significantly decreased"}, {"measurement": "OVX-induced increase in serum osteocalcin concentration", "setting": "OVX rats [2]; EE 30 μg/kg/day oral", "value": "completely prevented"}, {"measurement": "OVX-induced decrease in BMD of distal femoral metaphyses", "setting": "OVX rats [3]; EE 30 μg/kg/day oral", "value": "prevented the decrease"}, {"measurement": "proximal femoral BMD", "setting": "OVX rats [3]; EE 30 μg/kg/day oral", "value": "had no effect"}, {"measurement": "OVX-induced decrease in lumbar vertebral BMD", "setting": "OVX rats [4]; EE 30 μg/kg/day oral", "value": "completely prevented"}, {"measurement": "bone turnover rate in proximal tibial trabecular bone", "setting": "OVX rats [5]; EE 30 μg/kg/day oral", "value": "did not differ from sham controls"}, {"measurement": "osteoclast number per millimeter of bone surface and percent osteoclast surface compared with both sham and OVX controls", "setting": "OVX rats [5]; EE 30 μg/kg/day oral, proximal tibia", "value": "significantly decreased"}]}, {"molecule": "Oc1ccc2c(c1)CC[C@H](c1ccccc1)[C@@H]2c1ccc(OCCN2CCCC2)cc1", "note": "[PPTN, (-)-cis-6-phenyl-5-[4-(2-pyrrolidin-1-yl-ethoxy)-phenyl]-5,6,7,8-tetrahydro-naphthalene-2-ol]", "values": [{"measurement": "ED50 in preserving lumbar vertebral cancellous bone mass and structure", "setting": "OVX rats [1]; OVX rats, oral", "value": "less than 0.733 μg/kg/day"}, {"measurement": "trabecular number of fifth lumbar vertebral body compared with sham controls", "setting": "OVX rats [1]; [6]", "value": "significantly increased"}, {"measurement": "bone turnover rate, lumbar vertebra", "setting": "OVX rats [1]; PPTN at all dose levels, oral", "value": "did not differ from sham controls"}, {"measurement": "OVX-induced increase in bone formation rate (BFR)", "setting": "OVX rats [1]; PPTN at all dose levels, oral", "value": "inhibited this increase"}, {"measurement": "percent eroded surface (index of osteoclastic bone resorption) compared with sham controls", "setting": "OVX rats [1]; PPTN at all dose levels, oral", "value": "significantly decreased"}, {"measurement": "OVX-induced changes in trabecular bone volume, trabecular number and trabecular separation of fifth lumbar vertebral body", "setting": "OVX rats [1]; all doses of PPTN (0.733-733 μg/kg/day oral)", "value": "completely prevented"}, {"measurement": "OVX-induced increase in serum osteocalcin concentration", "setting": "OVX rats [2]; [7]", "value": "completely prevented"}, {"measurement": "BMD of distal femoral metaphyses and proximal femur", "setting": "OVX rats [3]; PPTN at 0.733 or 7.33 μg/kg/day oral", "value": "did not differ from OVX controls"}, {"measurement": "OVX-induced decreases in BMD of distal femoral metaphyses and proximal femur", "setting": "OVX rats [3]; [6]", "value": "completely prevented the decreases"}, {"measurement": "inhibition of cell proliferation", "setting": "MDA-MB-231 cells", "value": "did not inhibit cell proliferation"}, {"measurement": "lumbar vertebral BMD compared with both sham and OVX controls", "setting": "OVX rats [4]; PPTN 73.3 μg/kg/day oral", "value": "increased significantly"}, {"measurement": "OVX-induced decrease in lumbar vertebral BMD", "setting": "OVX rats [4]; PPTN at all dose levels (0.733, 7.33, 73.3, 733 μg/kg/day oral)", "value": "completely prevented"}, {"measurement": "proximal tibial trabecular bone volume", "setting": "OVX rats [5]; PPTN at 0.733 μg/kg/day oral", "value": "no significant effect"}, {"measurement": "percent osteoclast surface compared with OVX controls", "setting": "OVX rats [5]; PPTN at 0.733 μg/kg/day, proximal tibia", "value": "decreased significantly"}, {"measurement": "osteoclast number per millimeter of bone surface and percent osteoclast surface compared with both sham and OVX controls", "setting": "OVX rats [5]; PPTN at 7.33, 73.3, or 733 μg/kg/day oral, proximal tibia", "value": "significantly decreased"}, {"measurement": "bone turnover rate in proximal tibial trabecular bone", "setting": "OVX rats [5]; PPTN at doses of 7.33 to 733 μg/kg/day oral", "value": "did not differ from sham controls"}, {"measurement": "proximal tibial trabecular bone volume compared with OVX controls", "setting": "OVX rats [5]; [7]", "value": "significantly greater"}]}]}
